Laboratory results reported in US20250084063A1 (Incyte Corporation, priority 2023, published 2025).

Tests used:
Assay type in all cases: cell-based
[1] = molecular target: T1, MRGPRX2 (Homo sapiens, UniProt Q96LB1); assay: MRGPRX2 FLIPR calcium mobilization assay; design: host or cells: CHO-K1; conditions: CHO-K1 cells stably expressing human MRGPRX2; Ca2+ release, agonist Cortistatin-14 at EC80
T1 sequence (Q96LB1 1-330): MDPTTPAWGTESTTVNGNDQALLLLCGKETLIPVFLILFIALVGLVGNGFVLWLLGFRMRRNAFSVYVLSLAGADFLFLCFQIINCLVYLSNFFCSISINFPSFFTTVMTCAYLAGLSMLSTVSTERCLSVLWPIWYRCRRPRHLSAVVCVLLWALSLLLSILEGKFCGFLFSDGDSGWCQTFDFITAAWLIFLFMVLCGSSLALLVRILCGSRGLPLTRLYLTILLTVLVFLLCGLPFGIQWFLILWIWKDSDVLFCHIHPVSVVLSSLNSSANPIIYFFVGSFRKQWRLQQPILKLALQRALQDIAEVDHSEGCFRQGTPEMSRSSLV
Description: Example A. MRGPRX2 FLIPR Calcium Mobilization Assay
Chinese hamster ovary (CHO-K1) cells stably expressing human MRGPRX2 were purchased from Genescript (Piscataway, NJ). The cells were maintained in culture medium (Ham's F-12K) containing 10% (v/v) FBS, 200 μg/mL Zeocin, 100 units/mL penicillin G and 100 μg/mL streptomycin (Life Technologies, Carlsbad, CA). For the assay, the cells were harvested and resuspended with culture medium without Zeocin before plating at 8000 cells per well in 20 μL in 384-well black clear bottom cell culture plates (VWR, Radnor, PA). After 24 h culture at 37° C. and 5% CO2, the cells were loaded with 20 μL/well of calcium dye (FLIPR Calcium 6 Assay Kit, Molecular Devices, San Jose, CA) diluted in loading buffer (1×Hank's Balanced Salt Solution (HBSS), 5 mM probenecid, 20 mM 4-(2-hydroxyethyl)-1-piperazineethanesulfonic acid (HEPES), pH 7.4, VWR, Radnor, PA) followed with 45 min incubation at 37° C. and 40 min at room temperature in the dark. Cells were then treated with the addition of 10 uL/well test compounds with a range of increasing concentrations diluted in the assay buffer (1×HBSS, 20 mM HEPES, pH 7.4, VWR, Radnor, PA) with FLIPR Penta (Molecular Devices. San Jose, CA) and incubated for 30 min. at room temperature. Ca^2+ release was measured with FLIPR Penta with 10 seconds basal fluorescence measurement, then 12.5 μL of 5× agonist Cortistatin-14 (Tocris, Minneapolis, MN) at final concentration corresponding to the EC80 were added followed with continued fluorescence signal monitoring for an additional 110 seconds. The base line adjusted (median of first 10s base line) max value of the Relative Fluorescence Unit (RFU) was plotted against compound concentrations. Wells with no compound were served as the positive controls, and wells with high concentration of reference antagonist were used as negative controls. IC50 curves were globally fitted with 3- or 4-parameter Hill equation in a Genedata Screener (Genedata Basel, Switzerland).

[2] = molecular target: T1, MRGPRX2; assay: MRGPRX2 IP1 HTRF assay; design: host or cells: CHO-K1; conditions: CHO-K1 cells stably expressing human MRGPRX2; IP1 accumulation, agonist Cortistatin 14 1 μM
From the text: Example B: MRGPRX2 IP1 HTRF Assay
This assay measures compound inhibition of myo-Inositol 1 phosphate (IP1) accumulation in CHO-K1 cells. Chinese hamster ovary (CHO-K1) cells stably expressing human MRGPRX2 were purchased from GenScript (Piscataway, NJ).
For the HTRF IP1 determination, an IP-One GqKit (Perkin Elmer Cisbio, Waltham, MA), which includes all reagents and buffers in this protocol, was used. The cells were maintained in culture medium (Ham's F-12K) containing 10% (v/v) FBS, and 200 μg/mL Zeocin. For the assay, the cells were harvested and resuspended in culture medium with 2% FBS and without Zeocin, then were passed through a 40 μm filter. Cells were added at 20000 cells in a 5 μL/well to a 384-well white small volume cell culture plate (Greiner VWR, Radnor, PA) which contained 50 nL/well of test compound serially diluted at a selected concentration range in DMSO. 5 μL/well of prepared 2× Stimulation Buffer2 was then added to plates and was incubated at 37° C. with 5% CO2 for 1 h. 5 μL/well of agonist Cortistatin 14 (Bio-TechneR&D Systems, Minneapolis, MN) in 1× Stimulation Buffer 2, for a 1 μM final concentration, was then added to plates and incubated at 37° C. with 5% CO2 for 1 h. 6 μL/well of 1:20 diluted Detection Reagent Mix (d2 and Cryptate) was added to the plates and incubated for 1 h in the dark. Plates were read on the PHERAstar microplate reader (BMG Labtech Cary, NC) to determine the HTRF ratio of the acceptor and donor emission signals. The IP1 concentrations were calculated from a standard curve following the IP-One GQ kit instructions. Wells with DMSO only and wells with high concentration of reference antagonist were used as controls for normalization. Compound IC50 curves were globally fitted with 3- or 4-parameter Hill equation in a Genedata Screener (Genedata Basel, Switzerland).

[3] = molecular target: T1, MRGPRX2; assay: MRGPRX2 β-Arrestin assay; design: host or cells: PathHunter CHO-K1; conditions: PathHunter CHO-K1 MRGPRX2 β-Arrestin cell line; agonist Cortistatin 14 0.25 μM
From the text: Example C: MRGPRX2 β-Arrestin Assay
This assay measures compound inhibition of β-Arrestin recruitment, which is part of the G protein-independent pathway that results from the ligand-activated GPCR phosphorylation by specific GPCR kinases. The PathHunter CHO-K1 MRPGRX2 B-Arrestin Cell line stably expressing ProLink tagged MRGPRX2 and Enzyme Acceptor Tagged B-Arrestin was purchased from Eurofins DiscoverX, (Fremont, CA).
The cells were maintained in culture medium from the Europhins DiscoverX Cell Culture Kit-107 which includes FBS, hygromycin B and G418. For the assay, the cells were harvested and were resuspended with Cell Plating Reagent 2 (Eurofins DiscoverX). Cells were added 10000 cells in 25 µL/well to a 384-well black cell culture plate (Greiner VWR, Radnor, PA) which contained 125 nL/well of compound at a selected serially diluted concentration range or DMSO. The plate was incubated at 37° C. with 5% CO2 for 1 h. 2 μL/well of agonist Cortistatin 14 was diluted in Protein Dilution Buffer, (Eurofins DiscoverX) for a final concentration of 0.25 μM, was added and the plate was incubated at 37° C. with 5% CO2 for 90 min. 14 μL/well of Detection Reagent Mix (PathHunter Detection Kit, Eurofins DiscoverX) was added to the plates and further incubated for 1 h in the dark. Plates were read on the PHERAstar microplate reader (BMG Labtech Cary, NC) measuring luminescence 0.1 to 1 second per well. Data was normalized using DMSO only wells and wells with high concentration of reference antagonist as controls. Compound IC50 curves were globally fitted with 3- or 4-parameter Hill equation in a Genedata Screener (Genedata Basel, Switzerland).

| IC50 [1] | IC50 [2] | IC50 [3] | SMILES |
| --- | --- | --- | --- |
| – | 0.0001 to 0.1 µM | 0.0001 to 0.1 µM | C[C@]1(O)CC[C@@H](NC(=O)N2CC(CNc3cc(C(F)(F)F)nc4ccc(Cl)cc34)(n3cc(F)cn3)C2)CC1 [Example 89, 3-(((6-Chloro-2-(trifluoromethyl)quinolin-4-yl)amino)methyl)-3-(4-fluoro-1H-pyrazol-1-yl)-N-((1s,4s)-4-hydroxy-4-methylcyclohexyl)azetidine-1-carboxamide] |
| – | 0.0001 to 0.1 µM | 0.0001 to 0.1 µM | O=C(N[C@@H]1CC[C@@H](O)C1)N1CC(CNc2cc(C(F)(F)F)nc3ccc(Cl)cc23)(c2ccc(F)cc2)C1 [Example 90, 3-(((6-Chloro-2-(trifluoromethyl)quinolin-4-yl)amino)methyl)-3-(4-fluorophenyl)-N-((1R,3R)-3-hydroxycyclopentyl)azetidine-1-carboxamide] |
| – | 0.0001 to 0.1 µM | 0.0001 to 0.1 µM | N#C[C@H]1CC[C@H](NC(=O)N2CC(CNc3cc(C(F)(F)F)nc4ccc(Cl)cc34)(c3ccc(F)cc3)C2)CC1 [Example 91, 3-(((6-Chloro-2-(trifluoromethyl)quinolin-4-yl)amino)methyl)-N-((1r,4r)-4-cyanocyclohexyl)-3-(4-fluorophenyl)azetidine-1-carboxamide] |
| – | 0.0001 to 0.1 µM | 0.0001 to 0.1 µM | Fc1ccc(C2(CNc3cc(C(F)(F)F)nc4ccc(Cl)cc34)CN(Cc3cn[nH]c3)C2)cc1 [Example 93, N-((1-((1H-Pyrazol-4-yl)methyl)-3-(4-fluorophenyl)azetidin-3-yl)methyl)-6-chloro-2-(trifluoromethyl)quinolin-4-amine] |
| – | 0.0001 to 0.1 µM | 0.0001 to 0.1 µM | Cc1nc(CN2CC(CNc3cc(C(F)(F)F)nc4ccc(Cl)cc34)(c3ccc(F)cc3)C2)c[nH]1 [Example 94, 6-Chloro-N-((3-(4-fluorophenyl)-1-((2-methyl-1H-imidazol-4-yl)methyl)azetidin-3-yl)methyl)-2-(trifluoromethyl)quinolin-4-amine] |
| – | 0.0001 to 0.1 µM | 0.0001 to 0.1 µM | [O-][n+]1ccc(CN2CC(CNc3cc(C(F)(F)F)nc4ccc(Cl)cc34)(c3ccc(F)cc3)C2)cc1 [Example 95, 4-((3-(((6-Chloro-2-(trifluoromethyl)quinolin-4-yl)amino)methyl)-3-(4-fluorophenyl)azetidin-1-yl)methyl)pyridine 1-oxide] |
| – | 0.0001 to 0.1 µM | 0.0001 to 0.1 µM | NC1CC(CNc2cc(C(F)(F)F)nc3ccc(Cl)cc23)(c2ccccc2)C1 (stereo not shown) [Example 96, N-((3-Amino-1-phenylcyclobutyl)methyl)-6-chloro-2-(trifluoromethyl)quinolin-4-amine] |
| – | 0.0001 to 0.1 µM | 0.0001 to 0.1 µM | [2H]C([2H])([2H])NC(=O)N1CC(CNc2cc(C(F)(F)F)nc3ccc(Br)cc23)(n2cc(F)cn2)C1 [Example 97, 3-(((6-Bromo-2-(trifluoromethyl)quinolin-4-yl)amino)methyl)-3-(4-fluoro-1H-pyrazol-1-yl)-N-(methyl-d3)azetidine-1-carboxamide] |

Continued, compound first:

| SMILES | IC50 [1] | IC50 [2] | IC50 [3] |
| --- | --- | --- | --- |
| NS(=O)(=O)N1CC(CNc2cc(C(F)(F)F)nc3ccc(C(F)(F)F)cc23)(c2ccc(F)cc2)C1 [Example 1, 3-(((2,6-Bis(trifluoromethyl)quinolin-4-yl)amino)methyl)-3-(4 fluorophenyl)azetidine-1-sulfonamide] | 0.0001 to 0.1 µM | 0.0001 to 0.1 µM | 0.0001 to 0.1 µM |
| NC(=O)C1(C(=O)NC2CC(CNc3cc(C(F)(F)F)nc4ccc(Cl)cc34)(c3ccccc3)C2)CC1 (stereo not shown) [Example 74, N-(3-(((6-Chloro-2-(trifluoromethyl)quinolin-4-yl)amino)methyl)-3-phenylcyclobutyl)cyclopropane-1,1-dicarboxamide] | – | 0.0001 to 0.1 µM | 0.0001 to 0.1 µM |
| Nc1nc(N2CCC(CNc3cc(C(F)(F)F)nc4ccc(Cl)cc34)(c3ccccc3)CC2)nn1CCN1CCOCC1 [Example 79, N-((1-(5-Amino-1-(2-morpholinoethyl)-1H-1,2,4-triazol-3-yl)-4-phenylpiperidin-4-yl)methyl)-6-chloro-2-(trifluoromethyl)quinolin-4-amine] | 0.0001 to 0.1 µM | – | 0.0001 to 0.1 µM |
| NS(=O)(=O)N1CC(CNc2cc(C(F)(F)F)nc3ccc(Cl)cc23)(c2nc3cc(F)ccc3s2)C1 [Example 85, 3-(((6-Chloro-2-(trifluoromethyl)quinolin-4-yl)amino)methyl)-3-(5-fluorobenzo[d]thiazol-2-yl)azetidine-1-sulfonamide] | 0.0001 to 0.1 µM | – | 0.0001 to 0.1 µM |
| O=C(N[C@H]1C[C@H](O)C1)N1CCC(CNc2cc(C(F)(F)F)nc3ccc(Cl)cc23)(c2ccc(F)cc2)CC1 [Example 86, 4-(((6-Chloro-2-(trifluoromethyl)quinolin-4-yl)amino)methyl)-4-(4-fluorophenyl)-N-((1r,3r)-3-hydroxycyclobutyl) piperidine-1-carboxamide] | – | 0.0001 to 0.1 µM | 0.0001 to 0.1 µM |
| O=C(N[C@H]1CC[C@H](O)CC1)N1CCC(CNc2cc(C(F)(F)F)nc3ccc(Cl)cc23)(c2ccc(F)cc2)CC1 [Example 87, 4-(((6-Chloro-2-(trifluoromethyl)quinolin-4-yl)amino)methyl)-4-(4-fluorophenyl)-N-((1r,4r)-4-hydroxycyclohexyl) piperidine-1-carboxamide] | – | 0.0001 to 0.1 µM | 0.0001 to 0.1 µM |
| O=C(N[C@H]1CC[C@H](O)CC1)N1CC(CNc2cc(C(F)(F)F)nc3ccc(Cl)cc23)(n2cc(F)cn2)C1 [Example 88, 3-(((6-Chloro-2-(trifluoromethyl)quinolin-4-yl)amino)methyl)-3-(4-fluoro-1H-pyrazol-1-yl)-N-((1r,4r)-4-hydroxycyclohexyl)azetidine-1-carboxamide] | – | 0.0001 to 0.1 µM | 0.0001 to 0.1 µM |
